The source made the active and inactive calls. The rule behind the calls is not given here.
Test system: CCRIS mutagenicity, Ames/micronucleus/aberration tests
Experiment: CCRIS mutagenicity studies
[1] = Test System: AMES SALMONELLA TYPHIMURIUM, Strain/Indicator: TA98, Metabolic Activation: NONE, Method: STANDARD PLATE
[2] = Test System: AMES SALMONELLA TYPHIMURIUM, Strain/Indicator: TA98, Metabolic Activation: RAT, LIVER, S-9, AROCLOR 1254, Method: STANDARD PLATE
[3] = Test System: AMES SALMONELLA TYPHIMURIUM, Strain/Indicator: TA100, Metabolic Activation: NONE, Method: STANDARD PLATE
[4] = Test System: AMES SALMONELLA TYPHIMURIUM, Strain/Indicator: TA100, Metabolic Activation: RAT, LIVER, S-9, AROCLOR 1254, Method: STANDARD PLATE
[5] = Test System: AMES SALMONELLA TYPHIMURIUM, Strain/Indicator: TA98, Metabolic Activation: NONE, Method: PREINCUBATION
[6] = Test System: AMES SALMONELLA TYPHIMURIUM, Strain/Indicator: TA100, Metabolic Activation: NONE, Method: PREINCUBATION
[7] = Test System: AMES SALMONELLA TYPHIMURIUM, Strain/Indicator: TA100, Metabolic Activation: RAT, LIVER, S-9, AROCLOR 1254, Method: PREINCUBATION

Measured: mutagenic call

C=C(C)c1ccc(C)c2ccc(C=O)c-2c1
inactive: [1] inactive; negative | [3] inactive; negative
active: [2] active; positive | [4] active; positive

COc1cc2c(c3oc(=O)c4c(c13)CC[C@H]4O)[C@@H]1C=CO[C@@H]1O2
active: [4] active; positive
inactive: [3] inactive; negative

OCCN1CCNCC1
inactive: [5] inactive; negative | Test System: AMES SALMONELLA TYPHIMURIUM, Strain/Indicator: TA98, Metabolic Activation: RAT, LIVER, S-9, PCB, Method: PREINCUBATION inactive; negative | [6] inactive; negative | Test System: AMES SALMONELLA TYPHIMURIUM, Strain/Indicator: TA100, Metabolic Activation: RAT, LIVER, S-9, PCB, Method: PREINCUBATION inactive; negative

FC(F)(F)c1ccc(Cl)nc1
active: Test System: MOUSE LYMPHOMA, Strain/Indicator: L5178Y (TK+/TK-), Metabolic Activation: NONE active; positive | Test System: MOUSE LYMPHOMA, Strain/Indicator: L5178Y (TK+/TK-), Metabolic Activation: RAT, LIVER, S-9, AROCLOR 1254 active; positive

Cc1ccc2cc3c(ccc4ccccc43)c3c2c1CC3=O
active: Test System: CHINESE HAMSTER V-79, Strain/Indicator: V-79/8-AZAGUANINE, Metabolic Activation: RAT, LIVER, S-9, AROCLOR 1254, Method: STANDARD PLATE active; positive

BrCc1c2ccccc2cc2ccccc12
active: [1] active; positive | [3] active; positive

C=CC(=O)OC
active: Test System: CHINESE HAMSTER OVARY, Strain/Indicator: CHO-K1-BH4 (HGPRT)/6-THIOGUANINE, Metabolic Activation: NONE, Method: SUSPENSION/PLATE active; positive | Test System: CHINESE HAMSTER OVARY, Strain/Indicator: CHO-K1-BH4 (HGPRT), Metabolic Activation: NONE, Method: SUSPENSION/PLATE active; positive | Test System: MOUSE LYMPHOMA, Strain/Indicator: L5178Y (TK+/TK-), Metabolic Activation: RAT, LIVER, S-9, AROCLOR 1254, Method: SUSPENSION/PLATE active; positive. reevaluation of results: positive
inactive: Test System: AMES SALMONELLA TYPHIMURIUM, Strain/Indicator: TA97, Metabolic Activation: HAMSTER, LIVER, S-9, AROCLOR 1254 (10%), Method: PREINCUBATION inactive; negative | Test System: AMES SALMONELLA TYPHIMURIUM, Strain/Indicator: TA97, Metabolic Activation: HAMSTER, LIVER, S-9, AROCLOR 1254 (30%), Method: PREINCUBATION inactive; negative | Test System: AMES SALMONELLA TYPHIMURIUM, Strain/Indicator: TA97, Metabolic Activation: NONE, Method: PREINCUBATION inactive; negative | Test System: AMES SALMONELLA TYPHIMURIUM, Strain/Indicator: TA97, Metabolic Activation: RAT, LIVER, S-9, AROCLOR 1254 (10 OR 30%), Method: PREINCUBATION inactive; negative | Test System: AMES SALMONELLA TYPHIMURIUM, Strain/Indicator: TA98, Metabolic Activation: HAMSTER, LIVER, S-9, AROCLOR 1254 (10%), Method: PREINCUBATION inactive; negative | Test System: AMES SALMONELLA TYPHIMURIUM, Strain/Indicator: TA98, Metabolic Activation: HAMSTER, LIVER, S-9, AROCLOR 1254 (30%), Method: PREINCUBATION inactive; negative | [5] inactive; negative | [1] inactive; negative | Test System: AMES SALMONELLA TYPHIMURIUM, Strain/Indicator: TA98, Metabolic Activation: RAT, LIVER, S-9, AROCLOR 1254 (10%), Method: PREINCUBATION inactive; negative | Test System: AMES SALMONELLA TYPHIMURIUM, Strain/Indicator: TA98, Metabolic Activation: RAT, LIVER, S-9, AROCLOR 1254 (30%), Method: PREINCUBATION inactive; negative | [2] inactive; negative | Test System: AMES SALMONELLA TYPHIMURIUM, Strain/Indicator: TA98, Metabolic Activation: RAT, LIVER, S-9, SODIUM PHENOBARBITAL, Method: STANDARD PLATE inactive; negative | Test System: AMES SALMONELLA TYPHIMURIUM, Strain/Indicator: TA100, Metabolic Activation: HAMSTER, LIVER, S-9, AROCLOR 1254 (10%), Method: PREINCUBATION inactive; negative | Test System: AMES SALMONELLA TYPHIMURIUM, Strain/Indicator: TA100, Metabolic Activation: HAMSTER, LIVER, S-9, AROCLOR 1254 (30%), Method: PREINCUBATION inactive; negative | [6] inactive; negative | [3] inactive; negative | Test System: AMES SALMONELLA TYPHIMURIUM, Strain/Indicator: TA100, Metabolic Activation: RAT, LIVER, S-9, AROCLOR 1254 (10 OR 30%), Method: PREINCUBATION inactive; negative | [7] inactive; negative | [4] inactive; negative | Test System: AMES SALMONELLA TYPHIMURIUM, Strain/Indicator: TA100, Metabolic Activation: RAT, LIVER, S-9, SODIUM PHENOBARBITAL, Method: STANDARD PLATE inactive; negative | Test System: AMES SALMONELLA TYPHIMURIUM, Strain/Indicator: TA1535, Metabolic Activation: HAMSTER, LIVER, S-9, AROCLOR 1254 (10%), Method: PREINCUBATION inactive; negative | Test System: AMES SALMONELLA TYPHIMURIUM, Strain/Indicator: TA1535, Metabolic Activation: HAMSTER, LIVER, S-9, AROCLOR 1254 (30%), Method: PREINCUBATION inactive; negative | Test System: AMES SALMONELLA TYPHIMURIUM, Strain/Indicator: TA1535, Metabolic Activation: NONE, Method: PREINCUBATION inactive; negative | Test System: AMES SALMONELLA TYPHIMURIUM, Strain/Indicator: TA1535, Metabolic Activation: NONE, Method: STANDARD PLATE inactive; negative | Test System: AMES SALMONELLA TYPHIMURIUM, Strain/Indicator: TA1535, Metabolic Activation: RAT, LIVER, S-9, AROCLOR 1254 (10%), Method: PREINCUBATION inactive; negative | Test System: AMES SALMONELLA TYPHIMURIUM, Strain/Indicator: TA1535, Metabolic Activation: RAT, LIVER, S-9, AROCLOR 1254 (30%), Method: PREINCUBATION inactive; negative | Test System: AMES SALMONELLA TYPHIMURIUM, Strain/Indicator: TA1535, Metabolic Activation: RAT, LIVER, S-9, AROCLOR 1254, Method: STANDARD PLATE inactive; negative | Test System: AMES SALMONELLA TYPHIMURIUM, Strain/Indicator: TA1535, Metabolic Activation: RAT, LIVER, S-9, SODIUM PHENOBARBITAL, Method: STANDARD PLATE inactive; negative | Test System: AMES SALMONELLA TYPHIMURIUM, Strain/Indicator: TA1537, Metabolic Activation: HAMSTER, LIVER, S-9, AROCLOR 1254 (10%), Method: PREINCUBATION inactive; negative | Test System: AMES SALMONELLA TYPHIMURIUM, Strain/Indicator: TA1537, Metabolic Activation: NONE, Method: PREINCUBATION inactive; negative | Test System: AMES SALMONELLA TYPHIMURIUM, Strain/Indicator: TA1537, Metabolic Activation: NONE, Method: STANDARD PLATE inactive; negative | Test System: AMES SALMONELLA TYPHIMURIUM, Strain/Indicator: TA1537, Metabolic Activation: RAT, LIVER, S-9, AROCLOR 1254 (10%), Method: PREINCUBATION inactive; negative | Test System: AMES SALMONELLA TYPHIMURIUM, Strain/Indicator: TA1537, Metabolic Activation: RAT, LIVER, S-9, AROCLOR 1254, Method: STANDARD PLATE inactive; negative | Test System: AMES SALMONELLA TYPHIMURIUM, Strain/Indicator: TA1537, Metabolic Activation: RAT, LIVER, S-9, SODIUM PHENOBARBITAL, Method: STANDARD PLATE inactive; negative | Test System: AMES SALMONELLA TYPHIMURIUM, Strain/Indicator: TA1538, Metabolic Activation: NONE, Method: STANDARD PLATE inactive; negative | Test System: AMES SALMONELLA TYPHIMURIUM, Strain/Indicator: TA1538, Metabolic Activation: RAT, LIVER, S-9, AROCLOR 1254, Method: STANDARD PLATE inactive; negative | Test System: AMES SALMONELLA TYPHIMURIUM, Strain/Indicator: TA1538, Metabolic Activation: RAT, LIVER, S-9, SODIUM PHENOBARBITAL, Method: STANDARD PLATE inactive; negative

O=C(/C=C/c1ccccc1)c1ccccc1
inactive: [1] inactive; negative | [2] inactive; negative | [6] inactive; negative | [3] inactive; negative | [7] inactive; negative | [4] inactive; negative

Source: PubChem BioAssay AID1259407 (Chemical Carcinogenesis Research Information System (CCRIS), 2018)
